Assay: Anticancer human tumor 997537-175-T-J1-PDC patient-derived colon adenocarcinoma cell line growth inhibition [POLQ]
Conditions: 997537-175-T-J1-PDC complex spheroid viability, combination with POLQ inhibitors; curve of first compound; second compound 0.0316 µM
Summary of the method: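 PDC + HUVEC + MSC complex spheroids; POLQ inhibitors ± partner drugs; top conc. at/near clinical Cmax, else 10 microM (SN-38 1 microM), half-log dilutions; 37 degrees C, 5% CO2.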
With `COc1cc2cc(C(=O)CCC(=O)O)sc2cc1OC` + COC1C(OC(N)=O)C(O)C(Oc2ccc3c(O)c(NC(=O)c4ccc(O)c(CC=C(C)C)c4)c(=O)oc3c2C)OC1(C)C the IC50 was > 10 µM.
In the case of `O=C(Nc1ccc(O)c(NS(=O)(=O)c2ccc(F)cc2)c1)c1ccc(-c2ccccc2)cc1` + Nc1ccc(C#CCN(C(=O)Cc2ncc(C(F)(F)F)cc2C(F)(F)F)c2ccc(F)cc2)nn1, the IC50 is reported as > 10 µM.
In the case of `CC1COCCN1c1cc(-c2ccnn2C)c2ccnc(-c3ccn[nH]3)c2n1` (stereo unspecified) + Nc1ccc(C#CCN(C(=O)Cc2ncc(C(F)(F)F)cc2C(F)(F)F)c2ccc(F)cc2)nn1, the IC50 is reported as > 10 µM.
With `CC1COCCN1c1cc(C2(O)CC3CCC(C2)O3)c2cnn(-c3ccn[nH]3)c2n1` (stereo unspecified) + Cc1cccc(N(C)C(=O)C2C(O)CCN2c2nc(C)cc(C(F)(F)F)c2C#N)c1 the IC50 was > 10 µM.
Molecule `CC1COCCN1c1cc(C2(O)CC3CCC(C2)O3)c2cnn(-c3ccn[nH]3)c2n1` (stereo unspecified) + COC1C(OC(N)=O)C(O)C(Oc2ccc3c(O)c(NC(=O)c4ccc(O)c(CC=C(C)C)c4)c(=O)oc3c2C)OC1(C)C has an IC50 of 0.234 µM.

Same assay, conditions: 997537-175-T-J1-PDC complex spheroid viability, combination with POLQ inhibitors; curve of first compound; second compound 0.1 µM
For `COc1cc2cc(C(=O)CCC(=O)O)sc2cc1OC` + COC1C(OC(N)=O)C(O)C(Oc2ccc3c(O)c(NC(=O)c4ccc(O)c(CC=C(C)C)c4)c(=O)oc3c2C)OC1(C)C, the IC50 was > 10 µM.
With `O=C(Nc1ccc(O)c(NS(=O)(=O)c2ccc(F)cc2)c1)c1ccc(-c2ccccc2)cc1` + Nc1ccc(C#CCN(C(=O)Cc2ncc(C(F)(F)F)cc2C(F)(F)F)c2ccc(F)cc2)nn1 the IC50 was > 10 µM.
In the case of `CC1COCCN1c1cc(-c2ccnn2C)c2ccnc(-c3ccn[nH]3)c2n1` (stereo unspecified) + Nc1ccc(C#CCN(C(=O)Cc2ncc(C(F)(F)F)cc2C(F)(F)F)c2ccc(F)cc2)nn1, the IC50 is reported as 3.16 µM.
Work on `CC1COCCN1c1cc(C2(O)CC3CCC(C2)O3)c2cnn(-c3ccn[nH]3)c2n1` (stereo unspecified) + Cc1cccc(N(C)C(=O)C2C(O)CCN2c2nc(C)cc(C(F)(F)F)c2C#N)c1 yielded an IC50 of 3.16 µM.
`CC1COCCN1c1cc(C2(O)CC3CCC(C2)O3)c2cnn(-c3ccn[nH]3)c2n1` (stereo unspecified) + COC1C(OC(N)=O)C(O)C(Oc2ccc3c(O)c(NC(=O)c4ccc(O)c(CC=C(C)C)c4)c(=O)oc3c2C)OC1(C)C showed an IC50 of 0.276 µM.

Same assay, conditions: 997537-175-T-J1-PDC complex spheroid viability, combination with POLQ inhibitors; curve of first compound; second compound 0.316 µM
In the case of `COc1cc2cc(C(=O)CCC(=O)O)sc2cc1OC` + COC1C(OC(N)=O)C(O)C(Oc2ccc3c(O)c(NC(=O)c4ccc(O)c(CC=C(C)C)c4)c(=O)oc3c2C)OC1(C)C, the IC50 is reported as > 10 µM.
For `O=C(Nc1ccc(O)c(NS(=O)(=O)c2ccc(F)cc2)c1)c1ccc(-c2ccccc2)cc1` + Nc1ccc(C#CCN(C(=O)Cc2ncc(C(F)(F)F)cc2C(F)(F)F)c2ccc(F)cc2)nn1, the IC50 was > 10 µM.
For `CC1COCCN1c1cc(-c2ccnn2C)c2ccnc(-c3ccn[nH]3)c2n1` (stereo unspecified) + Nc1ccc(C#CCN(C(=O)Cc2ncc(C(F)(F)F)cc2C(F)(F)F)c2ccc(F)cc2)nn1, the IC50 was > 10 µM.
`CC1COCCN1c1cc(C2(O)CC3CCC(C2)O3)c2cnn(-c3ccn[nH]3)c2n1` (stereo unspecified) + Cc1cccc(N(C)C(=O)C2C(O)CCN2c2nc(C)cc(C(F)(F)F)c2C#N)c1 gave an IC50 of 0.936 µM.
`CC1COCCN1c1cc(C2(O)CC3CCC(C2)O3)c2cnn(-c3ccn[nH]3)c2n1` (stereo unspecified) + COC1C(OC(N)=O)C(O)C(Oc2ccc3c(O)c(NC(=O)c4ccc(O)c(CC=C(C)C)c4)c(=O)oc3c2C)OC1(C)C gave an IC50 of 0.29 µM.

Same assay, conditions: 997537-175-T-J1-PDC complex spheroid viability, combination with POLQ inhibitors; curve of first compound; second compound 1 µM
With `COc1cc2cc(C(=O)CCC(=O)O)sc2cc1OC` + COC1C(OC(N)=O)C(O)C(Oc2ccc3c(O)c(NC(=O)c4ccc(O)c(CC=C(C)C)c4)c(=O)oc3c2C)OC1(C)C the IC50 was > 10 µM.
In the case of `O=C(Nc1ccc(O)c(NS(=O)(=O)c2ccc(F)cc2)c1)c1ccc(-c2ccccc2)cc1` + Nc1ccc(C#CCN(C(=O)Cc2ncc(C(F)(F)F)cc2C(F)(F)F)c2ccc(F)cc2)nn1, the IC50 is reported as > 10 µM.
For `CC1COCCN1c1cc(-c2ccnn2C)c2ccnc(-c3ccn[nH]3)c2n1` (stereo unspecified) + Nc1ccc(C#CCN(C(=O)Cc2ncc(C(F)(F)F)cc2C(F)(F)F)c2ccc(F)cc2)nn1, the IC50 was > 10 µM.
With `CC1COCCN1c1cc(C2(O)CC3CCC(C2)O3)c2cnn(-c3ccn[nH]3)c2n1` (stereo unspecified) + Cc1cccc(N(C)C(=O)C2C(O)CCN2c2nc(C)cc(C(F)(F)F)c2C#N)c1 the IC50 was > 10 µM.
With `CC1COCCN1c1cc(C2(O)CC3CCC(C2)O3)c2cnn(-c3ccn[nH]3)c2n1` (stereo unspecified) + COC1C(OC(N)=O)C(O)C(Oc2ccc3c(O)c(NC(=O)c4ccc(O)c(CC=C(C)C)c4)c(=O)oc3c2C)OC1(C)C the IC50 was > 10 µM.

Same assay, conditions: 997537-175-T-J1-PDC complex spheroid viability, combination with POLQ inhibitors; curve of first compound; second compound 3.16 µM
In the case of `COc1cc2cc(C(=O)CCC(=O)O)sc2cc1OC` + COC1C(OC(N)=O)C(O)C(Oc2ccc3c(O)c(NC(=O)c4ccc(O)c(CC=C(C)C)c4)c(=O)oc3c2C)OC1(C)C, the IC50 is reported as > 10 µM.
For `O=C(Nc1ccc(O)c(NS(=O)(=O)c2ccc(F)cc2)c1)c1ccc(-c2ccccc2)cc1` + Nc1ccc(C#CCN(C(=O)Cc2ncc(C(F)(F)F)cc2C(F)(F)F)c2ccc(F)cc2)nn1, the IC50 was > 10 µM.
Molecule `CC1COCCN1c1cc(-c2ccnn2C)c2ccnc(-c3ccn[nH]3)c2n1` (stereo unspecified) + Nc1ccc(C#CCN(C(=O)Cc2ncc(C(F)(F)F)cc2C(F)(F)F)c2ccc(F)cc2)nn1 has an IC50 of 3.16 µM.
For `CC1COCCN1c1cc(C2(O)CC3CCC(C2)O3)c2cnn(-c3ccn[nH]3)c2n1` (stereo unspecified) + Cc1cccc(N(C)C(=O)C2C(O)CCN2c2nc(C)cc(C(F)(F)F)c2C#N)c1, the IC50 was > 10 µM.
For `CC1COCCN1c1cc(C2(O)CC3CCC(C2)O3)c2cnn(-c3ccn[nH]3)c2n1` (stereo unspecified) + COC1C(OC(N)=O)C(O)C(Oc2ccc3c(O)c(NC(=O)c4ccc(O)c(CC=C(C)C)c4)c(=O)oc3c2C)OC1(C)C, the IC50 was > 10 µM.

Same assay, conditions: 997537-175-T-J1-PDC complex spheroid viability, combination with POLQ inhibitors; curve of first compound; second compound 10 µM
In the case of `COc1cc2cc(C(=O)CCC(=O)O)sc2cc1OC` + COC1C(OC(N)=O)C(O)C(Oc2ccc3c(O)c(NC(=O)c4ccc(O)c(CC=C(C)C)c4)c(=O)oc3c2C)OC1(C)C, the IC50 is reported as > 10 µM.
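Note: luminescence signal used as a surrogate for viable cells; spheroids exposed to drugs for seven days before readout.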
